Laboratory results: the NIST ThermoML archive (doi:10.1007/s10765-010-0766-0)
“And” between values parts separate entries of the source, which are not always exact repeats. Equal values may be shown once. ± gives the expanded uncertainty stated by the source.

Assay: wn = mass fraction of the nth substance listed
Conditions: Liquid, Pycnometric method, w2 = 0.4981

FC(F)C(F)(F)F [pentafluoroethane] + FCF
mass density (277.15 K, 11982 kPa): 1205.5 ± 2 kg/m3
mass density (278.15 K, 12826 kPa): 1205.4 ± 2 kg/m3
mass density (279.15 K, 13669 kPa): 1205.2 ± 2 kg/m3
mass density (280.15 K, 14512 kPa): 1205.1 ± 2 kg/m3
mass density (281.15 K, 15355 kPa): 1204.9 ± 2 kg/m3
mass density (282.15 K, 16198 kPa): 1204.8 ± 2 kg/m3
mass density (283.15 K, 17040 kPa): 1204.6 ± 2 kg/m3
mass density (284.15 K, 17881 kPa): 1204.5 ± 2 kg/m3
mass density (285.15 K, 18722 kPa): 1204.3 ± 2 kg/m3
mass density (286.15 K, 19563 kPa): 1204.2 ± 1.9 kg/m3
mass density (287.15 K, 20403 kPa): 1204 ± 1.9 kg/m3
mass density (288.15 K, 21239 kPa): 1203.8 ± 1.9 kg/m3
mass density (289.15 K, 22077 kPa): 1203.7 ± 1.9 kg/m3
mass density (291.15 K, 23750 kPa): 1203.4 ± 1.9 kg/m3
mass density (292.15 K, 24585 kPa): 1203.2 ± 1.9 kg/m3
mass density (293.15 K, 25420 kPa): 1203 ± 1.9 kg/m3
mass density (294.15 K, 26254 kPa): 1202.9 ± 1.9 kg/m3
mass density (295.15 K, 27085 kPa): 1202.7 ± 1.9 kg/m3
mass density (296.15 K, 27917 kPa): 1202.5 ± 1.9 kg/m3
mass density (297.15 K, 8118 kPa): 1113.5 ± 1.8 kg/m3
mass density (297.15 K, 28747 kPa): 1202.3 ± 1.9 kg/m3
mass density (298.15 K, 29575 kPa): 1202.2 ± 1.9 kg/m3
mass density (299.15 K, 9422 kPa): 1113.3 ± 1.8 kg/m3
mass density (300.15 K, 10072 kPa): 1113.2 ± 1.8 kg/m3
mass density (300.15 K, 10089 kPa): 1113.1 ± 1.8 kg/m3
mass density (301.15 K, 10723 kPa): 1113.1 ± 1.8 kg/m3
mass density (301.15 K, 10737 kPa): 1113 ± 1.8 kg/m3
mass density (302.15 K, 11374 kPa): 1113 ± 1.8 kg/m3
mass density (302.15 K, 11385 kPa): 1112.9 ± 1.8 kg/m3
mass density (303.15 K, 12024 kPa): 1112.9 ± 1.8 kg/m3
mass density (303.15 K, 12032 kPa): 1112.8 ± 1.8 kg/m3
mass density (304.15 K, 12672 kPa): 1112.8 ± 1.8 kg/m3
mass density (304.15 K, 12680 kPa): 1112.7 ± 1.8 kg/m3
mass density (305.15 K, 13320 kPa): 1112.6 ± 1.8 kg/m3
mass density (305.15 K, 13327 kPa): 1112.5 ± 1.8 kg/m3
mass density (306.15 K, 13970 kPa): 1112.5 ± 1.8 kg/m3
mass density (306.15 K, 13973 kPa): 1112.4 ± 1.8 kg/m3
mass density (307.15 K, 14620 kPa): 1112.4 ± 1.8 kg/m3 and 1112.3 ± 1.8 kg/m3
mass density (308.15 K, 15268 kPa): 1112.3 ± 1.8 kg/m3 and 1112.2 ± 1.8 kg/m3
mass density (309.15 K, 15915 kPa): 1112.1 ± 1.8 kg/m3
mass density (309.15 K, 15917 kPa): 1112.1 ± 1.8 kg/m3
mass density (310.15 K, 16562 kPa): 1111.9 ± 1.8 kg/m3
mass density (310.15 K, 16564 kPa): 1112 ± 1.8 kg/m3
mass density (311.15 K, 17208 kPa): 1111.8 ± 1.8 kg/m3
mass density (311.15 K, 17212 kPa): 1111.9 ± 1.8 kg/m3
mass density (312.15 K, 17853 kPa): 1111.7 ± 1.8 kg/m3
mass density (312.15 K, 17859 kPa): 1111.7 ± 1.8 kg/m3
mass density (313.15 K, 18499 kPa): 1111.6 ± 1.8 kg/m3
mass density (313.15 K, 18506 kPa): 1111.6 ± 1.8 kg/m3
mass density (314.15 K, 19144 kPa): 1111.4 ± 1.8 kg/m3
mass density (314.15 K, 19153 kPa): 1111.5 ± 1.8 kg/m3
mass density (315.15 K, 19788 kPa): 1111.3 ± 1.8 kg/m3
mass density (315.15 K, 19798 kPa): 1111.3 ± 1.8 kg/m3
mass density (316.15 K, 20432 kPa): 1111.2 ± 1.8 kg/m3
mass density (316.15 K, 20443 kPa): 1111.2 ± 1.8 kg/m3
mass density (317.15 K, 21075 kPa): 1111 ± 1.8 kg/m3
mass density (317.15 K, 21088 kPa): 1111.1 ± 1.8 kg/m3
mass density (318.15 K, 21719 kPa): 1110.9 ± 1.8 kg/m3
mass density (318.15 K, 21733 kPa): 1110.9 ± 1.8 kg/m3
mass density (319.15 K, 22362 kPa): 1110.7 ± 1.8 kg/m3
mass density (319.15 K, 22377 kPa): 1110.8 ± 1.8 kg/m3
mass density (320.15 K, 23005 kPa): 1110.6 ± 1.8 kg/m3
mass density (320.15 K, 23021 kPa): 1110.7 ± 1.8 kg/m3
mass density (321.15 K, 23648 kPa): 1110.5 ± 1.8 kg/m3
mass density (321.15 K, 23665 kPa): 1110.5 ± 1.8 kg/m3
mass density (322.15 K, 24289 kPa): 1110.3 ± 1.8 kg/m3
mass density (322.15 K, 24307 kPa): 1110.4 ± 1.8 kg/m3
mass density (323.15 K, 24930 kPa): 1110.2 ± 1.8 kg/m3
mass density (323.15 K, 24949 kPa): 1110.3 ± 1.8 kg/m3
mass density (324.15 K, 25571 kPa): 1110 ± 1.8 kg/m3
mass density (324.15 K, 25590 kPa): 1110.1 ± 1.8 kg/m3
mass density (325.15 K, 26210 kPa): 1109.9 ± 1.8 kg/m3
mass density (325.15 K, 26231 kPa): 1110 ± 1.8 kg/m3
mass density (326.15 K, 26850 kPa): 1109.8 ± 1.8 kg/m3
mass density (326.15 K, 26871 kPa): 1109.8 ± 1.8 kg/m3
mass density (327.15 K, 27488 kPa): 1109.6 ± 1.8 kg/m3
mass density (327.15 K, 27511 kPa): 1109.7 ± 1.8 kg/m3
mass density (328.15 K, 28127 kPa): 1109.4 ± 1.8 kg/m3
mass density (328.15 K, 28150 kPa): 1109.5 ± 1.8 kg/m3
mass density (329.15 K, 5865 kPa): 921.2 ± 1.5 kg/m3
mass density (329.15 K, 5904 kPa): 921.4 ± 1.5 kg/m3
mass density (329.15 K, 28764 kPa): 1109.3 ± 1.8 kg/m3
mass density (329.15 K, 28790 kPa): 1109.4 ± 1.8 kg/m3
mass density (330.15 K, 6231 kPa): 921.1 ± 1.5 kg/m3
mass density (330.15 K, 6255 kPa): 921.2 ± 1.5 kg/m3
mass density (330.15 K, 6269 kPa): 921.3 ± 1.5 kg/m3
mass density (330.15 K, 29402 kPa): 1109.1 ± 1.8 kg/m3
mass density (330.15 K, 29426 kPa): 1109.2 ± 1.8 kg/m3
mass density (331.15 K, 6598 kPa): 921 ± 1.5 kg/m3
mass density (331.15 K, 6620 kPa): 921.1 ± 1.5 kg/m3
mass density (331.15 K, 6635 kPa): 921.2 ± 1.5 kg/m3
mass density (331.15 K, 30065 kPa): 1109.1 ± 1.8 kg/m3
mass density (332.15 K, 6965 kPa): 921 ± 3.4 kg/m3
mass density (332.15 K, 6987 kPa): 921 ± 1.6 kg/m3
